# How the values were obtained:
# MCF-10A cells = test: MTT antiproliferative assay, MCF-10A; type: cell-based, human; settings: read-out: Cytotoxicity IC50, 72 h
# HeLa cells = test: MTT antiproliferative assay, HeLa; type: cell-based; settings: read-out: Cytotoxicity IC50, 72 h
# 4T1 cells = test: MTT antiproliferative assay, 4T1; type: cell-based, mouse; settings: read-out: Cytotoxicity IC50, 4T1, 72 h
# MCF-7 cells = test: MTT antiproliferative assay, MCF-7; type: cell-based, human; settings: read-out: Cytotoxicity IC50, MCF-7, 72 h
# MDA-MB-231 cells = test: MTT antiproliferative assay, MDA-MB-231; type: cell-based, human; settings: read-out: Cytotoxicity IC50, MDA-MB-231, 72 h
# p-STING = test: Immunohistochemistry of primary tumor tissue; type: in vivo, mouse; settings: 5 mg kg^−1 intratumoral, IHC
structure (smiles),measurement,setting,value
N.N.[Cl][Pt][Cl] [Cisplatin],IC50,MCF-10A cells,15.5 ± 4.33 µM
same,IC50,HeLa cells,8.35 ± 0.86 µM
same,IC50,4T1 cells,25.5 ± 2.52 µM
same,IC50,MCF-7 cells,18.3 ± 5.74 µM
same,IC50,MDA-MB-231 cells,20.2 ± 5.6 µM
same,Expression of p-STING on primary tumors,p-STING,can't activate the STING pathway in vivo
